Like-named read-outs stand apart in the source and are kept apart here.
Experiments:
[1] = test system: HT-29 (colorectal adenocarcinoma); assay: Sulforhodamine B in vitro growth inhibition assay, HT-29; format: cell-based, human; settings: for Selectivity Index (SI) MCF-10/HT-29: IC50 in non-cancerogenic cell line / IC50 in cancer cell line
Procedure: (§1) For this purpose, a colorimetric sulforhodamine B assay was performed to quantify the cytotoxic effect through their respective IC50 values. Each compound’s serial dilutions (12.5, 25, 50, and 100 µM) were evaluated in triplicate. In our study, the human cancer cell lines used were MCF-7 (breast adenocarcinoma); HT-29 (colorectal adenocarcinoma); PC-3 (prostate adenocarcinoma); and MCF-10 control cells (normal breast epithelium). For comparative purposes, the literature IC50 values of daunorubicin and 5-fluorouracil (5-FU), measured in the same cell lines and under the same experimental conditions, were included. Similarly, drimenol (1) was included for comparative purposes.
(§2) The sulforhodamine B assay was used. Briefly, the cells were set up at 5 × 10^3 cells per well of a 96-well microplate for 18 h. Cells were incubated at 37 °C in a humidified 5% CO2/95% air mixture and treated with the compounds at different concentrations for 72 h. At the end of drug exposure, cells were fixed with 50% trichloroacetic acid at 4 °C. After washing with distilled water, cells were stained with 0.1% sulforhodamine B, dissolved in 1% acetic acid (50 μL/well) for 30 min, and, subsequently, washed with 1% acetic acid to remove the unbound stain. The protein-bound stain was solubilized with 100 μL of 10 mM unbuffered Tris base, and the cell density was determined using a […] (wavelength 540 nm). Results are expressed as IC50 values (μM) ± SD.

[2] = test system: PC-3 (prostate adenocarcinoma); settings: literature value, same experimental conditions; cited from earlier work
[3] = test system: HT-29 (colorectal adenocarcinoma); design: method as in PMID 25412045; settings: literature value, same experimental conditions; cited from earlier work
[4] = test system: MCF-7 (breast adenocarcinoma); settings: literature value, same experimental conditions; cited from earlier work
[5] = biological target: T1, Human recombinant Topoisomerase I (Homo sapiens, UniProt P11387); assay: Topoisomerase I activity, relaxation of supercoiled DNA (pEGFP-N1); format: biochemical; settings: 50 μM, agarose gel, result in words
T1 construct: purchased Sigma-Aldrich
T1 sequence (P11387 1-765): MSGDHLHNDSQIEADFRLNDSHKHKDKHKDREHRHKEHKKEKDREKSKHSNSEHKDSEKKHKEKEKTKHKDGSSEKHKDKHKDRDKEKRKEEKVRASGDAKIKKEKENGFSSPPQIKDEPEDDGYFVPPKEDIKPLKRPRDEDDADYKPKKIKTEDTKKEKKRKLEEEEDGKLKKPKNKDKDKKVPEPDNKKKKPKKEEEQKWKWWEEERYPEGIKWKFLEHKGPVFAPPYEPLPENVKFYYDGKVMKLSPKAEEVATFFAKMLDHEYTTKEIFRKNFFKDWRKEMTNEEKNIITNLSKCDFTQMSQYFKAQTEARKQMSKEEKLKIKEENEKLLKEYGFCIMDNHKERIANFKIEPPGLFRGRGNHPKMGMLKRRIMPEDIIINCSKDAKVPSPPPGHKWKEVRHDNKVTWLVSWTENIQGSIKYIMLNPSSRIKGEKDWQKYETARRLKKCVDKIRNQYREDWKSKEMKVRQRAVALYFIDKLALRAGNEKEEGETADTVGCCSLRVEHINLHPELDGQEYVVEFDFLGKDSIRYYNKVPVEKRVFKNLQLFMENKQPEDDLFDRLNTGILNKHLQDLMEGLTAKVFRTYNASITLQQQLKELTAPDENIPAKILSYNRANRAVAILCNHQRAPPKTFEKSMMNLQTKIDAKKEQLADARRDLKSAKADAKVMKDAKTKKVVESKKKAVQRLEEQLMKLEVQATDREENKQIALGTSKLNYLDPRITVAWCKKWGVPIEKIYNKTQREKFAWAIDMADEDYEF
Procedure: In this experiment, daunorubicin was used as control due to this compound being reported early as a TOPI inhibitor [31]. First, the optimal concentration of these compounds for the DNA relaxation assays was established.
Topoisomerase I activity was assayed by the relaxation of supercoiled DNA (pEGFP-N1) as the manufacturer’s instructions indicated. Human recombinant Topoisomerase I and buffer were from (Sigma-Aldrich). An amount of 2 μL of 10× topoisomerase I reaction buffer and 200 ng plasmid DNA and the indicated concentrations of compounds were incubated 30 min at 37 °C in Topo I buffer (500 mM Tris·HCl, pH 7.5, 1 M KCl, 10 mM dithiothreitol, 100 mM EDTA, 50 μg/mL acetylated bovine serum albumin (BSA)) in a total volume of 20 μL. The reaction was stopped by the addition of 5 μL of 5× loading dye (composition). Samples were electrophoresed on an 0.8% agarose gel without ethidium bromide for 2–3 h at 5 to 10 V/cm. The gel was stained with ethidium bromide and photographed with a UV transilluminator.

[6] = test system: MCF-10 control cells (normal breast epithelium); settings: literature value, same experimental conditions; cited from earlier work
[7] = test system: MCF-7 (breast adenocarcinoma); assay: Sulforhodamine B in vitro growth inhibition assay, MCF-7; format: cell-based, human; settings: for Selectivity Index (SI) MCF-10/MCF-7: IC50 in non-cancerogenic cell line / IC50 in cancer cell line
Procedure: as §1, §2

[8] = test system: PC-3 (prostate adenocarcinoma); assay: Sulforhodamine B in vitro growth inhibition assay, PC-3; format: cell-based, human; settings: for Selectivity Index (SI) MCF-10/PC-3: IC50 in non-cancerogenic cell line / IC50 in cancer cell line
Procedure: as §1, §2

[9] = test system: MCF-10 control cells (normal breast epithelium); assay: Sulforhodamine B in vitro growth inhibition assay, MCF-10 control cells; format: cell-based; settings: Homo sapiens, MCF10, 72 h of treatment, IC50 ± SD, non-tumoral cells
Procedure: as §1, §2

[10] = test system: caspases 3 and 7 on MCF-7 cells; assay: Caspase-Glo 3/7 assay; format: cell-based, human; settings: 50 μM, 24 h
Procedure: To determine the cell death type induced by the most promising aryl-drimane esters, we evaluated their capacity to induce apoptosis through the activation of caspases 3 and 7 on MCF-7 cells. For this purpose, 6a, 6e, 6f, 8c, 8f, and 8g were incubated for 24 h on MCF-7 cells at a concentration of 50 μM, close to the IC50 values for cytotoxicity in most compounds. […] In summary, these drimane derivatives induced apoptosis in the MCF-7 cell line, showing a potential antitumoral effect.
The activity of caspase 3/7 in treated MCF-7 cells was determined using a Caspase-Glo-3/7 Assay kit (Promega, UK—Cat. No G8090). The caspase-Glo 3/7 assay is a homogenous, luminescent assay that measures caspase-3 and -7 activities, both key-players in apoptosis. […] Luminescence was proportional to the amount of caspase present. MCF-7 cells (1 × 10^4 cells per well) were grown in a 96-well white plate and were allowed to adhere overnight. The cells were then treated for 24 h with the synthesized compounds (50 µM), with the inclusion of a blank as a control. After treatment, the Caspase-Glo® 3/7 was prepared according to the manufacturer’s guidelines. Briefly, 100 μL of Caspase-Glo 3/7 reagent was added to 100 μL of culture medium containing the cells previously treated in each well. The content was mixed gently by placing the plate on a shaker for 30 s, and the plate was incubated at room temperature in the dark for 1 h before luminescence was read on a luminometer (Berthold Sirius Single Tube Luminometer, Pforzheim, Germany). Fold change in caspase activity was obtained by first subtracting the luminescence value for the blank well from every other value, and then, expressing the average luminescence of each treatment as a fold change with respect to the average luminescence of the negative control.

[11] = Sulforhodamine B in vitro growth inhibition assay, MCF-7; format: cell-based, human; settings: human; ratio of selectivity versus 5-FU; read-out: more selective than 5-FU in MCF-7
Procedure: as §1, §2

[12] = Sulforhodamine B in vitro growth inhibition assay, PC-3; format: cell-based, human; settings: human; ratio of selectivity versus 5-FU; read-out: more selective than 5-FU in PC-3
Procedure: as §1, §2

For `COc1cccc2c1C(=O)c1c(O)c3c(c(O)c1C2=O)C[C@@](O)(C(C)=O)C[C@@H]3O[C@H]1C[C@H](N)[C@H](O)[C@H](C)O1` [Daunorubicin, reference compound], the “Selectivity Index (SI) MCF-10/HT-29” value [1] is given as 0.6, the IC50 [2] is given as 0.41 ± 0.04 µM and the IC50 [3] is given as 15.1 ± 0.5 µM. For the same molecule, the IC50 [4] was 0.33 ± 0.02 µM, the “inhibition of TOP1-induced DNA relaxation” value [5] was “modified the TOP1-induced DNA relaxation in a minor way than compounds 6a and 8c” and the IC50 [6] was 9.32 ± 1.01 µM. The “Selectivity Index (SI) MCF-10/MCF-7” value [7] was 28 and the “Selectivity Index (SI) MCF-10/PC-3” value [8] was 23.

In the case of `CC1=C(C(=O)Oc2cc(C)cc(O)c2)[C@@]2(C)CCCC(C)(C)C2CC1` (stereo partly drawn) [6a, 3-Hydroxy-5-methylphenyl-(8aS)-2,5,5,8a-tetramethyl-3,4,4a,5,6,7,8,8a-octahydronaphthalene-1-carboxylate], the IC50 ([1]; Homo sapiens, HT-29, sulforhodamine B assay, 72 h of treatment, IC50 ± SD) is reported as 56.9 ± 4 µM, the “Selectivity Index (SI) MCF-10/HT-29” value [1] is reported as 1.2 and the IC50 [9] is reported as 67.2 ± 6.3 µM. For the same molecule, the “caspases-3/7 activity over the control” value [10] was “two-fold”, the “inhibition of TOP1-induced DNA relaxation” value [5] was “more prominent” and the IC50 ([7]; Homo sapiens, MCF7, sulforhodamine B assay, 72 h of treatment, IC50 ± SD) was 33.7 ± 1.3 µM. For the same molecule, the “Selectivity Index (SI) MCF-10/MCF-7” value [7] was 2.0, the selectivity ratio at 72 h [11] was 100 and the IC50 ([8]; Homo sapiens, sulforhodamine B assay, 72 h of treatment, IC50 ± SD) was 85.5 ± 7.1 µM. The “Selectivity Index (SI) MCF-10/PC-3” value [8] was 0.8 and the selectivity ratio at 72 h [12] was 20.

— article PMC10179937, “Cytotoxic Activity, Topoisomerase I Inhibition and In Silico Studies of New Sesquiterpene-aryl Ester Derivatives of (-) Drimenol” (Molecules, 2023)
